In US9682970B2, “Fluorescent compounds and uses thereof” (BIOTIUM, INC., priority 2012, dated 2017):

What was measured:
[1] = Photostability of the dye; format: physicochemical
[2] = system: HeLa cells fixed in 4% paraformaldehyde; test: Staining of fixed cells with Compound 36; format: cell-based; settings: 10 uM in blocking buffer, 10 minutes, Cy3 channel
Experimental: The high photostability and relatively long emission wavelength (˜565 nm) make the dye a useful cell counterstain. HeLa cells were plated on an 8-chambered Lab-Tek cover glass at 4×10^4 cells per chamber and cultured overnight. The day after plating, the cells were fixed in 4% paraformaldehyde/PBS for 15 minutes at room temperature. The cells were rinsed in PBS and blocked in PBS containing 5% normal goat serum and 0.1% Triton X-100 for 30 minutes at room temperature. Cells were stained with 10 uM Dye 36 in blocking buffer for 10 minutes at room temperature and imaged in the same solution by confocal microscopy in the Cy3 channel of a Zeiss LSM 700 confocal microscope.

calf thymus dsDNA = test: Absorption and emission spectra of nucleic acid binding dyes; format: physicochemical
Experimental: All absorption spectra were measured on a Beckman Coulter DU-800 spectrophotometer at room temperature. All fluorescence spectra were measured on a Hitachi F-4500 fluorescence spectrophotometer at room temperature. To record the complete emission profiles, excitation wavelengths were set 30 nm shorter than the absorption maxima of the dyes. The dsDNA used was calf thymus dsDNA from Sigma. When dsDNA was present in the dye solutions, spectra were recorded after the dyes had been incubated with the DNA for at least 10 minutes.

[3] = system: HeLa cells formaldehyde-fixed, permeabilized; test: Staining of fixed cells; format: cell-based; settings: 10 μM in PBS/5% BSA, 30 minutes
Experimental: (§1) The images in the top panel of FIG. 6 were obtained under the following conditions: live HeLa cells were incubated with 10 uM compound 7, compound 8, or Dye 5 for 30 minutes at 37 C in a CO2 incubator. The images in the bottom panel of FIG. 6 were obtained under the following conditions: HeLa cells were formaldehyde-fixed, permeabilized, and blocked according to standard immunofluorescence staining protocols. Cell were stained with 10 μM compound 7, 8 or 5 in PBS/5% BSA for 30 minutes, then washed with PBS buffer and imaged. Live and fixed cells were imaged using an Olympus epifluorescence microscope equipped with a FITC filter set, Retiga 2000R Fast 1394 camera (QImaging), and Image-Pro Express software (Media Cybernetics).

live HeLa cells = test: Staining of live cells; format: cell-based; settings: 10 uM, 30 minutes at 37 C
Experimental: as §1

calf thymus DNA = test: DNA quantitation in solution (fluorescence linearity)
Experimental: compounds 5, 7 and related compounds according to the invention can be used to quantitate double-stranded DNA in solution with high sensitivity and accuracy over a wide range of DNA concentrations, as shown in FIGS. 4 and 5. […] At […] dye concentration, compound 5 fluorescence is linear from 0.04-250 ng (FIG. 5).
The data shown in FIG. 4A was obtained under the following conditions: compound 7 at 0.5 μM was prepared in TE buffer (10 mM Tris, 1 mM EDTA, pH 7.5), and pipetted into wells of black 96-well plates at 200 μL per well. Two-fold dilutions of calf thymus DNA were prepared in TE buffer starting at 0.2 ng/uL, and 10 μL of each DNA dilution was added per 96 well to obtain a standard curve of 2 ng to 0.015 ng per well. The plates were incubated for five minutes at room temperature, protected from light, then read at 468 nm excitation and 507 nm emission using a Molecular Devices Gemini XS fluorescent plate reader. Triplicate samples were averaged and background fluorescence (no DNA) was subtracted. Fluorescence values were plotted against the DNA amount (ng/well). […] The R^2 values for linear regression are shown next to each curve. The data shown in FIG. 4B were obtained under similar condition except that compound 5 at 1 uM was used and serial DNA dilutions were from 250 ng to 0.04 ng.

adherent HeLa cells = test: Cell number quantitation in adherent cell cultures; format: cell-based; settings: 10 uM, 30 minutes at 37° C., 50,000 to 100 cells per well
Experimental: The data in FIG. 7B was obtained under the following conditions: adherent HeLa cells were seeded at densities ranging between 50,000 and 100 cells per well in optical bottom black 96 well tissue culture plates and allowed to adhere overnight at 37° C. in a 5% CO2 incubator. On the day after seeding, the cells were washed with HBSS and incubated in HBSS containing Dye 5 or Dye 7 at 10 uM for 30 minutes at 37° C. Fluorescence was read at 468/507 nm in a Molecular Devices Gemini XS fluorescent plate reader. Triplicate samples were averaged and background fluorescence (no cells) was subtracted. Fluorescence values were plotted against the DNA amount (ng/well). The R^2 values for linear regression are shown next to each curve. For comparison, cell numbers were quantitated using the CyQUANT NF Cell Proliferation Assay Kit (Life Technologies according to the kit manual.

[4] = system: GAPDH cDNA from Jurkat cell purified mRNA; test: Real-time PCR with cDNA; settings: 0.34 uM dye
Experimental: Compound 7 and related dyes can be used in real time PCR experiments to monitor amplification of target cDNA. In FIG. 9, serial dilutions of total cDNA generated from Jurkat cell purified mRNA were added to PCR reaction mixes containing 0.34 uM compound 7 and real time PCR was performed.
The data in FIG. 9 were collected under the following conditions: mRNA was purified from 4×10^6 Jurkat cells using Qiagen's RNeasy Kit and cDNA was then generated using oligo-dT primers and the ProtoScript First Strand cDNA Synthesis Kit (New England BioLabs). Serial 1:2 dilutions of the cDNA in water were prepared and added to PCR reactions consisting of a final concentration of 25 mM Tris-HCl (pH 8.6), 5 mM KCl, 10 mM (NH4)2SO4, 2 mM MgCl2, 2.5% glycerol, 5% DMSO, 200 uM dNTPs (New England BioLabs), 0.01% Tween-20, non-acetylated BSA (Sigma), 500 nM GAPDH Forward primer (5′-GAAGGTGAAGGTCGGAGTC-3′), 500 nM GAPDH Reverse primer (5′-[…]-3′) (Integrated DNA Technologies), 1 U Taq polymerase (Syzygy) modified using a HotStart Polymerase Modification Kit (Biotium, Inc.) and 0.34 uM compound 7. One microliter cDNA was added to each 20 ul reaction. Real time PCR was performed using the RotorGeneQ as described for FIG. 8.

[5] = system: CD3e PCR products (WT or single base pair change); test: High-resolution melt curve analysis (HRM); design: species or system human; settings: compound 7 (0.07 μM) spiked into EvaGreen Master Mix
Source text: The addition of a small amount of compound 7 to existing real time HRM Master Mixes can improve the resolution of the melting curves leading to higher confidence calls by HRM software. FIGS. 12 and 13 show normalized graphs (12A, 13A) and difference graphs (12B, 13B) from the HRM analysis of PCR products generated from template plasmids containing either a WT copy of CD3e or a version with a single base pair change. The genotype calls of the HRM software are also shown (12C, 13C).
The data in FIGS. 12 and 13 were collected under the following conditions: PCR reactions were performed as in FIG. 10 with 500 nM CD3e Forward primer (5′-[…]-3′) and […] CD3e Reverse primer (5′-[…]-3′). To each reaction, one microliter of approximately 1×10^6 copies/μl pME-human CD3e-6× His-HA was added, either with a wild type (WT) sequence or with a single nucleotide change (C to T) at base 54 from the start codon of the CD3e sequence. HRM analysis was performed on the RotorGeneQ immediately following template amplification from a temperature range of 76.5-86.5° C. ramping 0.1° C. every two seconds after initial 90 second pre-melt conditioning.

Jurkat cells = test: Cell number quantitation in cell suspensions; format: cell-based; settings: 10 uM final dye, 30 minutes at 37° C., 440,000 to 860 cells per well
Experimental: The data in FIG. 7A were obtained under the following conditions: compound 5 or 7 at 20 uM in Hank's Balanced Salt Solution (HBSS) was pipetted into optical bottom black 96 well tissue culture plates at 50 μL per well. Two-fold serial dilutions of Jurkat cells in suspension culture were prepared in Hank's Balanced Salt Solution (HBSS) and pipetted into black 96 well plates at 50 μL per well to obtain a dilution curve of 440,000 to 860 cells per well, and a final dye concentration of 10 uM. Plates were incubated for 30 minutes at 37° C. in a 5% CO2 incubator, and fluorescence was read at 468/507 nm in a Molecular Devices Gemini XS fluorescent plate reader. Triplicate samples were averaged and background fluorescence (no cells) was subtracted. Fluorescence values were plotted against the DNA amount (ng/well). The R^2 values for linear regression are shown next to each curve. For comparison, cell numbers were quantitated using the CyQUANT NF Cell Proliferation Assay Kit (Life Technologies) according to the kit manual.

[6] = system: linearized GAPDH-containing plasmid DNA; test: Real-time PCR with plasmid DNA; settings: 0.34 uM dye, 5×10^5 copies plasmid
Experimental: Compound 7 and related dyes can be used in real time PCR experiments to monitor amplification of target plasmid DNA. In FIG. 8, 5×10^5 copies of linearized GAPDH-containing plasmid DNA or water (non-template controls, NTC) were added to PCR reaction mixes containing 0.34 uM of either SYBR Green I (lines with solid diamonds (DNA) or “x's” (water)) or Compound 7 (lines with triangles (DNA) or circles (water)) and real time PCR was performed. […] The data in FIG. 8 were collected under the following conditions: PCR reactions consisted of a final concentration of 50 mM Tris-HCl (pH 8.6), 3 mM MgCl2, 50 μg/ml non-acetylated BSA (Sigma), 200 μM dNTPs (New England BioLabs), 500 nM GAPDH Forward primer ([NT]), 500 nM GAPDH Reverse primer ([NT]) (Integrated DNA Technologies), 1 U Hot-Start Cheetah Taq (Biotium, Inc.) and either 0.34 uM SYBR Green I (Life Technologies) or 0.34 uM compound 7. One microliter of 5×10^5 copies linearized pCMV-SPORT6 GAPDH plasmid (Open Biosystems) was added to each 20 ul reaction. Real time PCR was performed using the RotorGeneQ with the following cycling conditions: 95° C. for 2 minutes, followed by 45 cycles of 95° C. for 5 seconds and 60° C. for 30 seconds, with data acquisition during the elongation stage on the green channel.

[7] = 0.5 μM dye concentration, DNA 0.015-2 ng
[8] = in the presence of dsDNA, 10 mM pH 7.4 Tris buffer, room temperature

For `CC(=N)NCc1ccc2c(c1)C(C)(C)C(=CC(C)=CC1=[N+](C)c3ccc(CNC(C)=N)cc3C1(C)C)N2C` [Compound 36], the photostability [1] was “high”, the “staining of nuclei of fixed cells” value [2] was “good specificity” and the emission wavelength (calf thymus dsDNA) was roughly 565 nm.
In the case of `CCCN(CCCNC1=CC(=Cc2sc3cccc4c3[n+]2CCC4)c2ccccc2N1c1ccccc1)C(=N)N` [compound 8], the “staining of nuclei of fixed cells” value [3] is reported as “can specifically stain the nuclei” and the “staining of nuclei of live cells” value (live HeLa cells) is reported as “can specifically stain the nuclei”.
In the case of `CCCN(CCCNC1=CC(=Cc2sc3cccc4c3[n+]2CCC4)c2ccccc2N1c1ccccc1)C1=NCCN1` [compound 7], the “sensitivity (slope of the titration curve) compared to PicoGreen” value (calf thymus DNA; [7]) is reported as “more sensitive than PicoGreen”, the “quantitation of cell numbers in adherent cell cultures” value (adherent HeLa cells) is reported as “can be used to quantitate cell numbers” and the “amplification of target amplicon from serial cDNA dilutions” value [4] is reported as “efficient amplification”. The “effect on HRM analysis resolution” value [5] was “improves HRM analysis resolution”, the “quantitation of cell numbers in cell suspensions” value (Jurkat cells) was “can be used to quantitate cell numbers” and the “Ct value (in words)” value [6] was “early”. The “amplification of target amplicon” value [6] was “efficient amplification”, the endpoint fluorescent signal [6] was “high” and the “staining of nuclei of fixed cells” value [3] was “can specifically stain the nuclei”. The “staining of nuclei of live cells” value (live HeLa cells) was “can specifically stain the nuclei”.
In the case of `CN(C)CCCN(CCCN(C)C)c1cc(C=C2Sc3ccccc3N2C)c2ccccc2[n+]1-c1ccccc1` [PicoGreen, reference compound], the “linearity of fluorescence at lower DNA concentrations” value (calf thymus DNA; [7]) is reported as “lower than that of compound 7”.
For `CCCN(CCCNC1=CC(=Cc2sc3ccccc3[n+]2C)c2ccccc2N1c1ccccc1)C(=N)N` [compound 5], the “DNA amount range of linearity of fluorescence” value (calf thymus DNA; 1 uM concentration (FIG. 4B)) was 0.05 to 250 ng, the “DNA amount range over which fluorescence is linear” value (calf thymus DNA; 1 mM dye concentration) was 0.04 to 250 ng and the “quantitation of cell numbers in adherent cell cultures” value (adherent HeLa cells) was “can be used to quantitate cell numbers”. The “quantitation of cell numbers in cell suspensions” value (Jurkat cells) was “can be used to quantitate cell numbers”, the “staining of nuclei of fixed cells” value [3] was “can specifically stain the nuclei” and the “fluorescence upon DNA binding” value (calf thymus dsDNA; 10 mM pH 7.4 Tris, with DNA) was “highly fluorescent”. The absorption maximum (calf thymus dsDNA; [8]) was roughly 470 nm, the emission maximum (calf thymus dsDNA; [8]) was roughly 520 nm and the “staining of nuclei of live cells” value (live HeLa cells) was “can specifically stain the nuclei”.
